Patent US20250353812A1, “2,6-DIBENZYLIDENECYCLOHEXANONE OXIME COMPOUND AND PREPARATION METHOD THEREFOR AND USE THEREOF” (WENZHOU MEDICAL UNIVERSITY, priority 2022, published 2025)

Experiments:
IL-6 = experiment: Inhibition of IL-6 release from J774A.1 macrophages stimulated by LPS (ELISA); assay type: cell-based; conditions: 10 μM compound pretreatment 2 h, then 0.5 μg/mL LPS 22 h, LPS control = 100, FIG. 1
Description: (§1) The present invention tested the dose-effect relationship of some of the compounds of Examples in inhibiting the release of IL-6 and TNF-α from J774A.1 macrophages stimulated by LPS. The specific method is as follows: 1.2×10^6 […] macrophages were cultured by DMEM culture solution at 37° C., the culture solution was renewed after 24 h, the tested example compound (at a final concentration of 10 μM) was added for pretreatment for 2 h and then continuously treated by 0.5 μg/mL of LPS for 22 h, the culture solution was collected, and the content of IL-6 and TNF-α was detected by ELISA method. The total protein concentration was measured by collecting cells, the ELISA results were divided by the corresponding total protein concentration and calibrated by the IL-6 and TNF-α content of LPS control group as 100, and the average and error values were calculated.

[1] = system: liver lipid metabolism of obese mice; experiment: Protective effect on liver lipid metabolism of obese mice (high-fat diet); assay type: in vivo; conditions: HFD mice; Example 9 12 mg/kg, Example 2 10 mg/kg, intragastric gavage every two days for 8 weeks
Description: (§2) A suspension of 0.5% sodium carboxymethylcellulose and the compounds of Examples was prepared for intragastric administration. The blank control group and the high-fat diet obesity model group were administrated with equal doses of solvent (0.5% CMC-Na solution) intragastrically. The mice were first adaptively raised for 1 week, and when the mice were 8 weeks old, they were randomly divided into 2 groups (A: Con, B: HFD). Group A was fed with normal mouse feed, and mice in group B were fed with 60% high-fat feed for 16 weeks. After the model was successfully established at 12 weeks, the mice in group B were randomly divided into three groups (i: HFD, ii: HFD+Example 9, 12 mg/kg, iii: HFD+Example 2, 10 mg/kg). The body weight of the mice was measured and recorded every week, and groups ii and iii were treated with the compounds of Examples by intragastric gavage every two days for 8 weeks. After 24 weeks, the mice were anesthetized and sacrificed, and blood samples were collected and centrifuged to collect serum for various serum biochemical tests; the liver was removed, and the liver tissue was cut and embedded (frozen and paraffin) for immunohistochemistry and other analyses. The remaining liver tissues were snap frozen in liquid nitrogen and stored in a −80° C. freezer.
The liver lipid metabolism of obese mice is taken as an example. […] It can be clearly seen from the above test results that the compound having the structure of formula I of the present invention has a protective effect on the liver lipid metabolism of obese mice.

[2] = system: liver inflammation in obese mice; experiment: Protective effect on liver inflammation in obese mice (high-fat diet); assay type: in vivo; conditions: HFD mice; Example 9 12 mg/kg, Example 2 10 mg/kg, intragastric gavage every two days for 8 weeks
Description: as §2
Taking the compounds of Examples 2 and 9 as examples, the experimental results are shown in FIGS. 3A-3D and FIGS. 4A-4E, where 2 and 9 represent the compounds of Example 2 and Example 9, respectively. Inflammation was assessed by examining macrophage infiltration in the liver using the macrophage-specific marker F4/80 staining. […] In addition, the expression of TNF-α, IL-6 and IL-1β genes in liver tissue was detected.

TNF-α = experiment: Inhibition of TNF-α release from J774A.1 macrophages stimulated by LPS (ELISA); assay type: cell-based; conditions: 10 μM compound pretreatment 2 h, then 0.5 μg/mL LPS 22 h, LPS control = 100, FIG. 2
Description: as §1

For `CCCON=C1/C(=C/c2ccccc2C(F)(F)F)CCC/C1=C\c1ccccc1C(F)(F)F` [Example 2, 2,6-(E,E)-(2-(trifluoromethyl)benzylidene)cyclohexan-1-one propyl oxime], the “inhibitory effect on the release of IL-6” value (IL-6) was “significant inhibitory effect”, the “dyslipidemia caused by high-fat diet feeding (serum triglycerides, low-density lipoprotein cholesterol, total cholesterol)” value [1] was “significantly alleviated” and the “lipid accumulation in the liver (H&E staining)” value [1] was “significantly alleviated”. The “lipid accumulation in the liver (oil red staining of frozen sections, quantified)” value [1] was “significantly alleviates”, the “macrophage infiltration in the liver (F4/80 staining)” value [2] was “decreased” and the “upregulation of IL-1β gene in mouse liver tissue (mRNA)” value [2] was “significantly alleviated”. The “upregulation of IL-6 gene in mouse liver tissue (mRNA)” value [2] was “significantly alleviated”, the “upregulation of TNF-α gene in mouse liver tissue (mRNA)” value [2] was “significantly alleviated” and the “inhibitory effect on the release of TNF-α” value (“inhibitory effect … of TNF-α” for short) (TNF-α) was “significant inhibitory effect”.
In the case of `FC(F)(F)c1ccccc1/C=C1\CCC/C(=C\c2ccccc2C(F)(F)F)C1=NOCCN1CCCC1` [Example 5], the “inhibitory effect on the release of IL-6” value (IL-6) is reported as “significant inhibitory effect”.
For `FC(F)(F)c1ccccc1/C=C1\CCC/C(=C\c2ccccc2C(F)(F)F)C1=NOCCCN1CCCC1` [Example 6, 2,6-(E,E)-(2-(trifluoromethyl)benzylidene)cyclohexan-1-one-3-(pyrrolidin-1-yl)propyl oxime], the “inhibitory effect on the release of IL-6” value (IL-6) was “significant inhibitory effect”.
In the case of `FC(F)(F)c1ccccc1/C=C1\CCC/C(=C\c2ccccc2C(F)(F)F)C1=NOCCN1CCOCC1` [Example 7, 2,6-(E,E)-(2-(trifluoromethyl)benzylidene)cyclohexan-1-one-2-(morpholinoethyl)oxime], the “inhibitory effect on the release of IL-6” value (IL-6) is reported as “significant inhibitory effect” and the “inhibitory effect … of TNF-α” value (TNF-α) is reported as “significant inhibitory effect”.
`CC(C)ON=C1/C(=C/c2ccccc2C(F)(F)F)CCC/C1=C\c1ccccc1C(F)(F)F` [Example 10, 2,6-(E,E)-(2-(trifluoromethyl)benzylidene)cyclohexan-1-one isopropyl oxime] was tested, and the “inhibitory effect on the release of IL-6” value (IL-6) was “significant inhibitory effect”.
`FC(F)(F)c1ccccc1/C=C1\CCC/C(=C\c2ccccc2C(F)(F)F)C1=NOCC1CCCC1` [Example 13, 2,6-(E,E)-(2-(trifluoromethyl)benzylidene)cyclohexan-1-one cyclopentylmethyl oxime] was tested, and the “inhibitory effect on the release of IL-6” value (IL-6) was “significant inhibitory effect”.
In the case of `COc1cccc(CON=C2/C(=C/c3ccccc3C(F)(F)F)CCC/C2=C\c2ccccc2C(F)(F)F)c1` [Example 16, 2,6-(E,E)-(2-(trifluoromethyl)benzylidene)cyclohexan-1-one-3-methoxybenzyl oxime], the “inhibitory effect on the release of IL-6” value (IL-6) is reported as “significant inhibitory effect”.
With `Fc1cccc(CON=C2/C(=C/c3ccccc3C(F)(F)F)CCC/C2=C\c2ccccc2C(F)(F)F)c1` [Example 18, 2,6-(E,E)-(2-(trifluoromethyl)benzylidene)cyclohexan-1-one-3-fluorobenzyl oxime] the “inhibitory effect on the release of IL-6” value (IL-6) was “significant inhibitory effect”.
With `Fc1ccc(CON=C2/C(=C/c3ccccc3C(F)(F)F)CCC/C2=C\c2ccccc2C(F)(F)F)cc1` [Example 19, 2,6-(E,E)-(2-(trifluoromethyl)benzylidene)cyclohexan-1-one-4-fluorobenzyl oxime] the “inhibitory effect … of TNF-α” value (TNF-α) was “significant inhibitory effect”.
`FC(F)(F)c1ccccc1/C=C1\CCC/C(=C\c2ccccc2C(F)(F)F)C1=NOCc1c(Cl)cccc1Cl` [Example 20, 2,6-(E,E)-(2-(trifluoromethyl)benzylidene)cyclohexan-1-one-2,6-dichlorobenzyl oxime] was tested, and the “inhibitory effect on the release of IL-6” value (IL-6) was “significant inhibitory effect”.
For `Cc1cccc(CCON=C2/C(=C/c3ccccc3C(F)(F)F)CCC/C2=C\c2ccccc2C(F)(F)F)c1` [Example 22, 2,6-(E,E)-(2-(trifluoromethyl)benzylidene)cyclohexan-1-one-3-(methylphenylethyl)oxime], the “inhibitory effect … of TNF-α” value (TNF-α) was “significant inhibitory effect”.
For `Fc1cccc(CCON=C2/C(=C/c3ccccc3C(F)(F)F)CCC/C2=C\c2ccccc2C(F)(F)F)c1` [Example 24, 2,6-(E,E)-(2-(trifluoromethyl)benzylidene)cyclohexan-1-one-3-(fluorophenethyl)oxime], the “inhibitory effect … of TNF-α” value (TNF-α) was “significant inhibitory effect”.
For `Fc1ccc(CCON=C2/C(=C/c3ccccc3C(F)(F)F)CCC/C2=C\c2ccccc2C(F)(F)F)cc1` [Example 25, 2,6-(E,E)-(2-(trifluoromethyl)benzylidene)cyclohexan-1-one-4-(fluorophenethyl)oxime], the “inhibitory effect on the release of IL-6” value (IL-6) was “significant inhibitory effect” and the “inhibitory effect … of TNF-α” value (TNF-α) was “significant inhibitory effect”.
For `FC(F)(F)c1ccccc1/C=C1\CCC/C(=C\c2ccccc2C(F)(F)F)C1=NOCC1CCCO1` (stereo not shown) [Example 26, 2,6-(E,E)-(2-(trifluoromethyl)benzylidene)cyclohexan-1-one-((tetrahydrofuran-2-yl)methyl)oxime], the “inhibitory effect … of TNF-α” value (TNF-α) was “significant inhibitory effect”.
For `FC(F)(F)c1ccccc1/C=C1\CCC/C(=C\c2ccccc2C(F)(F)F)C1=NOCC1OCCO1` [Example 27, 2,6-(E,E)-(2-(trifluoromethyl)benzylidene)cyclohexan-1-one-((1,3-dioxolan-2-yl)methyl)oxime], the “inhibitory effect on the release of IL-6” value (IL-6) was “significant inhibitory effect” and the “inhibitory effect … of TNF-α” value (TNF-α) was “significant inhibitory effect”.
For `FC(F)(F)c1ccccc1/C=C1\CCC/C(=C\c2ccccc2C(F)(F)F)C1=NOCC1CCOCC1` [Example 28, 2,6-(E,E)-(2-(trifluoromethyl)benzylidene)cyclohexan-1-one-(tetrahydro-2H-pyran-4-yl) methyl oxime], the “inhibitory effect on the release of IL-6” value (IL-6) was “significant inhibitory effect” and the “inhibitory effect … of TNF-α” value (TNF-α) was “significant inhibitory effect”.
With `FC(F)(F)c1ccccc1/C=C1\CCC/C(=C\c2ccccc2C(F)(F)F)C1=NOCCC1OCCO1` [Example 29] the “inhibitory effect … of TNF-α” value (TNF-α) was “significant inhibitory effect”.
For `CN1CCN(CCCON=C2/C(=C/c3ccccc3C(F)(F)F)CCC/C2=C\c2ccccc2C(F)(F)F)CC1` [Example 30, 2,6-(E,E)-(2-(trifluoromethyl)benzylidene)cyclohexan-1-one-(3-(4-methylpiperazin-1-yl)propyl)oxime], the “inhibitory effect on the release of IL-6” value (IL-6) was “significant inhibitory effect”.
In the case of `CCCON=C1/C(=C/c2ccccc2)CCC/C1=C\c1ccccc1` [Example 32, 2,6-(E,E)-(benzylidene)cyclohexan-1-one propyl oxime], the “inhibitory effect on the release of IL-6” value (IL-6) is reported as “significant inhibitory effect” and the “inhibitory effect … of TNF-α” value (TNF-α) is reported as “significant inhibitory effect”.
`CC(C)ON=C1/C(=C/c2ccccc2F)CCC/C1=C\c1ccccc1F` [Example 33, 2,6-(E,E)-(2-(fluoro)benzylidene)cyclohexan-1-one isopropyl oxime] was tested, and the “inhibitory effect on the release of IL-6” value (IL-6) was “significant inhibitory effect” and the “inhibitory effect … of TNF-α” value (TNF-α) was “significant inhibitory effect”.
With `COCCON=C1/C(=C/c2ccc(OC)cc2)CCC/C1=C\c1ccc(OC)cc1` [Example 35, 2,6-(E,E)-(4-(methoxy)benzylidene)cyclohexan-1-one-(2-methoxyethyl)oxime] the “inhibitory effect on the release of IL-6” value (IL-6) was “significant inhibitory effect” and the “inhibitory effect … of TNF-α” value (TNF-α) was “significant inhibitory effect”.
In the case of `Oc1ccc(/C=C2\CCC/C(=C\c3ccc(O)cc3)C2=NOCC2CCCC2)cc1` [Example 37, 2,6-(E,E)-(4-(hydroxy)benzylidene)cyclohexan-1-one cyclopentylmethyl oxime], the “inhibitory effect on the release of IL-6” value (IL-6) is reported as “significant inhibitory effect” and the “inhibitory effect … of TNF-α” value (TNF-α) is reported as “significant inhibitory effect”.
In the case of `Clc1ccc(/C=C2\CCC/C(=C\c3ccc(Cl)c(Cl)c3)C2=NOCCN2CCOCC2)cc1Cl` [Example 39, 2,6-(E,E)-(3,4-(dichloro)benzylidene)cyclohexan-1-one-2-(morpholinoethyl)oxime], the “inhibitory effect on the release of IL-6” value (IL-6) is reported as “significant inhibitory effect” and the “inhibitory effect … of TNF-α” value (TNF-α) is reported as “significant inhibitory effect”.
